Laboratory results as given in PubChem BioAssay AID280 (DTP/NCI, 2004).
“And” between values parts separate entries of the source, which are not always exact repeats. Equal values may be shown once. Toxic doses and inconclusive results are not listed.

Tested on: nude mice, LOX melanoma ip, survival T/C
Assay: NCI In Vivo Anticancer Drug Screen. Data for tumor model Human Amelanotic Melanoma (LOX) (intraperitoneal) in NU/NU BALB/C (nude) mice
Details: endpoint: median survival time, higher = longer survival
Experimental: The antitumor activity of compounds was measured in mice bearing transplantable tumors. Survival or tumor size were measured and the results are expressed as the measurement made in the treated group (T) divided by the measurement made in the vehicle treated control group (C). The tumor model used in this assay is Human Amelanotic Melanoma (LOX) (intraperitoneal) in NU/NU BALB/C (nude) mice

[1] = dose: 37.5 mg/kg/injection, schedule: Q04DX003 (ip), vehicle: saline
[2] = dose: 75.0 mg/kg/injection, schedule: Q04DX003 (ip), vehicle: saline

`CC(=O)/C(=C\c1ccc(Cl)c(Cl)c1)C(=O)CCN(C)C` was tested, and the T/C (dose: 6.25 mg/kg/injection, schedule: Q04DX003 (ip), vehicle: suspension in saline) was 96 % of control, the T/C (dose: 12.5 mg/kg/injection, schedule: Q04DX003 (ip), vehicle: suspension in saline) was 102 % of control and the T/C (dose: 25.0 mg/kg/injection, schedule: Q04DX003 (ip), vehicle: suspension in saline) was 96 % of control. The T/C (dose: 50.0 mg/kg/injection, schedule: Q04DX003 (ip), vehicle: suspension in saline) was 86 % of control and the T/C (dose: 100.0 mg/kg/injection, schedule: Q04DX003 (ip), vehicle: suspension in saline) was 122 % of control.
In the case of `COc1cc2c(c(OC)c1O)-c1ccc(OC)c(=O)cc1[C@@H](NC(=O)C(F)(F)F)CC2`, the T/C (dose: 2.5 mg/kg/injection, schedule: Q04DX003 (ip), vehicle: Klucel (hydroxypropylcellulose) (HPC)) is reported as 122 % of control.
In the case of `COc1cc(NCc2ccc3nc(N)nc(N)c3c2C)cc(OC)c1OC`, the T/C (dose: 7.5 mg/kg/injection, schedule: Q04DX003 (ip), vehicle: Klucel (hydroxypropylcellulose) (HPC)) is reported as 151 % of control, the T/C (dose: 15.0 mg/kg/injection, schedule: Q04DX003 (ip), vehicle: Klucel (hydroxypropylcellulose) (HPC)) is reported as 118 % of control and the T/C (dose: 30.0 mg/kg/injection, schedule: Q04DX003 (ip), vehicle: Klucel (hydroxypropylcellulose) (HPC)) is reported as 118 % of control. The T/C (dose: 60.0 mg/kg/injection, schedule: Q04DX003 (ip), vehicle: Klucel (hydroxypropylcellulose) (HPC)) was 123 % of control.
In the case of `NCCCSc1ccccc1`, the T/C (dose: 9.38 mg/kg/injection, schedule: Q01DX009 (ip), vehicle: saline) is reported as 94 % of control, the T/C (dose: 18.75 mg/kg/injection, schedule: Q01DX009 (ip), vehicle: saline) is reported as 99 % of control and the T/C (dose: 37.5 mg/kg/injection, schedule: Q01DX009 (ip), vehicle: saline) is reported as 99 % of control. For the same compound, the T/C (dose: 75.0 mg/kg/injection, schedule: Q01DX009 (ip), vehicle: saline) was 94 % of control and the T/C (dose: 150.0 mg/kg/injection, schedule: Q01DX009 (ip), vehicle: saline) was 89 % of control.
`COc1ccc(OC)c(Cc2cnc3nc(N)nc(N)c3c2C)c1` was tested, and the T/C (dose: 7.5 mg/kg/injection, schedule: Q04DX003 (ip), vehicle: water) was 99 % of control, the T/C (dose: 15.0 mg/kg/injection, schedule: Q04DX003 (ip), vehicle: water) was 105 % of control and the T/C (dose: 30.0 mg/kg/injection, schedule: Q04DX003 (ip), vehicle: water) was 101 % of control. For the same compound, the T/C (dose: 37.5 mg/kg/injection, schedule: Q04DX003 (ip), vehicle: water) was 91 % of control, the T/C (dose: 60.0 mg/kg/injection, schedule: Q04DX003 (ip), vehicle: water) was 107 % of control and the T/C (dose: 75.0 mg/kg/injection, schedule: Q04DX003 (ip), vehicle: water) was 88 % of control.
In the case of `O=C1c2cccc(NCCCNCCO)c2C(=O)c2cccc(NCCCNCCO)c21`, the T/C (dose: 4.69 mg/kg/injection, schedule: Q04DX003 (ip), vehicle: saline) is reported as 116 % of control, the T/C (dose: 6.75 mg/kg/injection, schedule: Q04DX003 (ip), vehicle: acid diluted with saline) is reported as 113 % of control and 97 % of control and the T/C (dose: 9.38 mg/kg/injection, schedule: Q04DX003 (ip), vehicle: saline) is reported as 124 % of control. For the same compound, the T/C (dose: 11.0 mg/kg/injection, schedule: Q04DX003 (ip), vehicle: acid diluted with saline) was 117 % of control, the T/C (dose: 11.25 mg/kg/injection, schedule: Q04DX003 (ip), vehicle: acid diluted with saline) was 97 % of control and the T/C (dose: 18.7 mg/kg/injection, schedule: Q04DX003 (ip), vehicle: acid diluted with saline) was 111 % of control. The T/C (dose: 18.75 mg/kg/injection, schedule: Q04DX003 (ip), vehicle: acid diluted with saline) was 106 % of control, the T/C (dose: 31.25 mg/kg/injection, schedule: Q04DX003 (ip), vehicle: acid diluted with saline) was 112 % of control and the T/C [1] was 105 % of control. The T/C [2] was 86 % of control.
With `O=C1C2=C(Nc3cc([N+](=O)[O-])ccc3N2)OC1c1ccccn1` (stereo not given) the T/C (dose: 25.0 mg/kg/injection, schedule: Q04DX003 (ip), vehicle: Klucel (hydroxypropylcellulose) (HPC)) was 99 % of control, the T/C (dose: 50.0 mg/kg/injection, schedule: Q04DX003 (ip), vehicle: Klucel (hydroxypropylcellulose) (HPC)) was 99 % of control and the T/C (dose: 100.0 mg/kg/injection, schedule: Q04DX003 (ip), vehicle: Klucel (hydroxypropylcellulose) (HPC)) was 110 % of control. The T/C (dose: 200.0 mg/kg/injection, schedule: Q04DX003 (ip), vehicle: Klucel (hydroxypropylcellulose) (HPC)) was 110 % of control.
For `CN(C)CCC(=O)C(=Cc1ccc(O)cc1)C(=O)CCN(C)C`, the T/C (dose: 18.75 mg/kg/injection, schedule: Q04DX003 (ip), vehicle: saline) was 100 % of control, the T/C [1] was 101 % of control and the T/C [2] was 112 % of control. The T/C (dose: 150.0 mg/kg/injection, schedule: Q04DX003 (ip), vehicle: saline) was 107 % of control and the T/C (dose: 300.0 mg/kg/injection, schedule: Q04DX003 (ip), vehicle: saline) was 103 % of control.
For `CC1=CC=CC(C)(C)C(O)C1=O` (stereo not given), the T/C (dose: 18.75 mg/kg/injection, schedule: Q04DX003 (ip), vehicle: Klucel (hydroxypropylcellulose) (HPC)) was 98 % of control, the T/C (dose: 37.5 mg/kg/injection, schedule: Q04DX003 (ip), vehicle: Klucel (hydroxypropylcellulose) (HPC)) was 94 % of control and the T/C (dose: 75.0 mg/kg/injection, schedule: Q04DX003 (ip), vehicle: Klucel (hydroxypropylcellulose) (HPC)) was 98 % of control. The T/C (dose: 150.0 mg/kg/injection, schedule: Q04DX003 (ip), vehicle: Klucel (hydroxypropylcellulose) (HPC)) was 98 % of control and the T/C (dose: 300.0 mg/kg/injection, schedule: Q04DX003 (ip), vehicle: Klucel (hydroxypropylcellulose) (HPC)) was 93 % of control.
